Reference: ChEMBL document CHEMBL3885861, “Open TG-GATES”

Species: Rattus norvegicus
Assay: Open TG-GATES - Regimen: Single
Assay type: toxicity, organism-based, Sprague-Dawley
Set-up: regimen Single, gender Male, age 6 weeks
Conditions: in vivo, po, 15 mg/kg, route gavage, dose level High; for APTT / Bas / Eos / Fbg / Hb / Ht / Lym / MCH / MCHC / MCV / Mono / Neu / PT / Plat / RBC / Ret / WBC: tissue Blood; for KIDNEY_L / KIDNEY_R / KIDNEY_TOTAL: tissue Kidney; for ALP / ALT / AST / CRE / Cl / DBIL / GLC / IP / K / LDH / Na / PL / RALB / TBIL / TC / TG / TP / gamma-GTP: tissue Plasma

COc1cc2c(c(OC)c1OC)-c1ccc(OC)c(=O)cc1[C@@H](NC(C)=O)CC2 [COLCHICINE]
TERMINAL_BW (3 h): 219.9 g
APTT (3 h): 17.2 s
Bas (3 h): 0%
Eos (3 h): 0.8%
Fbg (3 h): 212.4 mg/dL
Hb (3 h): 13.4 g/dL
Ht (3 h): 40.8%
Lym (3 h): 76.2%
MCH (3 h): 21.9 pg
MCHC (3 h): 33%
MCV (3 h): 66.3 fL
Mono (3 h): 13%
Neu (3 h): 10%
PT (3 h): 12.3 s
Plat (3 h): 111.2 x10_4/uL
RBC (3 h): 614.8 x10_4/ul
Ret (3 h): 9.9%
WBC (3 h): 105.1 x10_2/uL
KIDNEY_L (3 h): 1 g
KIDNEY_R (3 h): 1 g
KIDNEY_TOTAL (3 h): 2 g
ALP (3 h): 859.4 IU/L
ALT (3 h): 59.8 IU/L
AST (3 h): 152.8 IU/L
CRE (3 h): 0.5 mg/dL
Cl (3 h): 105.2 meq/L
DBIL (3 h): 0.03 mg/dL
GLC (3 h): 184.8 mg/dL
IP (3 h): 9.3 mg/dL
K (3 h): 4.6 meq/L
LDH (3 h): 377.8 IU/L
Na (3 h): 138.6 meq/L
PL (3 h): 113.4 mg/dL
RALB (3 h): 3.7 g/dL
TBIL (3 h): 0.4 mg/dL
TC (3 h): 75.2 mg/dL
TG (3 h): 21.4 mg/dL
TP (3 h): 5.6 g/dL
gamma-GTP (3 h): 2.4 IU/L
TERMINAL_BW (6 h): 220.6 g
APTT (6 h): 17.3 s
Bas (6 h): 0%
Eos (6 h): 0.8%
Fbg (6 h): 215 mg/dL
Hb (6 h): 14.5 g/dL
Ht (6 h): 44.5%
Lym (6 h): 69.6%
MCH (6 h): 21.2 pg
MCHC (6 h): 32.7%
MCV (6 h): 65 fL
Mono (6 h): 6.2%
Neu (6 h): 24%
PT (6 h): 14.1 s
Plat (6 h): 109.9 x10_4/uL
RBC (6 h): 684.6 x10_4/ul
Ret (6 h): 8.3%
WBC (6 h): 68.3 x10_2/uL
KIDNEY_L (6 h): 1 g
KIDNEY_R (6 h): 1 g
KIDNEY_TOTAL (6 h): 2 g
ALP (6 h): 1105.6 IU/L
ALT (6 h): 257.8 IU/L
AST (6 h): 651.4 IU/L
CRE (6 h): 0.5 mg/dL
Cl (6 h): 104.2 meq/L
DBIL (6 h): 0.1 mg/dL
GLC (6 h): 174.8 mg/dL
IP (6 h): 9.5 mg/dL
K (6 h): 4.8 meq/L
LDH (6 h): 1373 IU/L
Na (6 h): 139.8 meq/L
PL (6 h): 101.2 mg/dL
RALB (6 h): 3.7 g/dL
TBIL (6 h): 0.5 mg/dL
TC (6 h): 66.8 mg/dL
TG (6 h): 12.2 mg/dL
TP (6 h): 5.5 g/dL
gamma-GTP (6 h): 2 IU/L
TERMINAL_BW (9 h): 217.2 g
APTT (9 h): 17.8 s
Bas (9 h): 0%
Eos (9 h): 0.6%
Fbg (9 h): 203.8 mg/dL
Hb (9 h): 14.9 g/dL
Ht (9 h): 45.2%
Lym (9 h): 50.6%
MCH (9 h): 21.1 pg
MCHC (9 h): 32.8%
MCV (9 h): 64.3 fL
Mono (9 h): 12.2%
Neu (9 h): 36.8%
PT (9 h): 14.8 s
Plat (9 h): 99 x10_4/uL
RBC (9 h): 704.2 x10_4/ul
Ret (9 h): 7.7%
WBC (9 h): 52.6 x10_2/uL
KIDNEY_L (9 h): 1 g
KIDNEY_R (9 h): 1 g
KIDNEY_TOTAL (9 h): 1.9 g
ALP (9 h): 1469.6 IU/L
ALT (9 h): 302.8 IU/L
AST (9 h): 623.8 IU/L
CRE (9 h): 0.5 mg/dL
Cl (9 h): 101.8 meq/L
DBIL (9 h): 0.3 mg/dL
GLC (9 h): 171 mg/dL
IP (9 h): 8.1 mg/dL
K (9 h): 4.7 meq/L
LDH (9 h): 1091.2 IU/L
Na (9 h): 137 meq/L
PL (9 h): 126 mg/dL
RALB (9 h): 3.8 g/dL
TBIL (9 h): 0.6 mg/dL
TC (9 h): 86.2 mg/dL
TG (9 h): 9.4 mg/dL
TP (9 h): 5.5 g/dL
gamma-GTP (9 h): 2 IU/L
TERMINAL_BW (24 h): 208.7 g
APTT (24 h): 18 s
Bas (24 h): 0%
Eos (24 h): 0.6%
Fbg (24 h): 171 mg/dL
Hb (24 h): 15.6 g/dL
Ht (24 h): 47.7%
Lym (24 h): 73.4%
MCH (24 h): 20.5 pg
MCHC (24 h): 32.9%
MCV (24 h): 62.4 fL
Mono (24 h): 9.8%
Neu (24 h): 16.2%
PT (24 h): 12.5 s
Plat (24 h): 121.1 x10_4/uL
RBC (24 h): 763.8 x10_4/ul
Ret (24 h): 6.3%
WBC (24 h): 78.2 x10_2/uL
KIDNEY_L (24 h): 1 g
KIDNEY_R (24 h): 1 g
KIDNEY_TOTAL (24 h): 2 g
ALP (24 h): 1599.2 IU/L
ALT (24 h): 160.4 IU/L
AST (24 h): 350.8 IU/L
CRE (24 h): 0.6 mg/dL
Cl (24 h): 104 meq/L
DBIL (24 h): 0.1 mg/dL
GLC (24 h): 176 mg/dL
IP (24 h): 7.8 mg/dL
K (24 h): 5.2 meq/L
LDH (24 h): 172.4 IU/L
Na (24 h): 136.8 meq/L
PL (24 h): 116.4 mg/dL
RALB (24 h): 3.3 g/dL
TBIL (24 h): 0.5 mg/dL
TC (24 h): 60.8 mg/dL
TG (24 h): 16.8 mg/dL
TP (24 h): 5.1 g/dL
gamma-GTP (24 h): 1.4 IU/L
